Measurements: patent US20040097464A1, “Mixture of non-sulfated fucose-based oligosaccharides, a cosmetic or pharmaceutical composition comprising said mixture and its use in cosmetics or pharmacy” (priority 2000, published 2004)

Legend:
Assay type in all cases: cell-based, human
MMP-9 [1] = test: MMP activity of skin explants stimulated with hyaluronane (gelatin zymography), MMP-9; settings: skin explants stimulated with 1 mg/ml of hyaluronane, 10 μg/ml
Method: (§1) Skin explants from a skin of the belly of a person were cultivated in a DMEM medium without phenol red (GIBCO) under stirring at 37° C. for 48 hours with different treatments. The samples were treated with a concentration of 10 μg/ml.
(§2) Gelatin, substrate of the MMP-s, was co-polymerized at final 1 mg/ml with a gel of polyacrylamide at 10%. The extracellular media from the cultures of skin explant were deposited on the top of the gel, the electrophoresis was carried out at 150 volts. The gels were then incubated in MMP buffer for 24 hours under stirring at 37° C. The gels were then colored with Coomassie blue, then uncolored with distilled water. The lise ranges corresponding to an MMP activity, appeared as white, while the background of the gel was blue. In function of the distance of migration of proteins, one could determine the molecular weights of the enzymes having digested the gelatin. The MMP activity was quantified by morphometric analysis with the aid of a Visiolab computer. […]
(§3) The protocol of the studies was the same as that used for the study of the MMP activity of the non-stimulated skin explants, but with hyaluronane with a concentration of […] and the samples of oligosaccharides with a concentration of 10 μg/ml, added in the culture medium.

MMP-2 [2] = test: MMP activity of skin explants stimulated with hyaluronane (gelatin zymography), MMP-2; settings: skin explants stimulated with 1 mg/ml of hyaluronane, 10 μg/ml
Method: as §1, §2, §3

MMP-2 [3] = test: MMP activity of non-stimulated skin fibroblasts in monolayer (zymography), expression of MMP-2; settings: 10 μg/ml, 24 hours (section b.2 fibroblasts; title says skin explants)
From the text: (§4) Skin fibroblast from a skin of the belly of a person were cultivated until the 7th cellular passage in a DMEM Glutamax (GIBCO) medium containing 1% of antibiotics and of fungicide and 10% of fetal calf serum and were used for the experiment. The fibroblasts were inseminated on 6-well plates at a density of 5.10^4 cells per well. When at the confluence, the culture medium was replaced by a DMEM medium, without phenol red containing 0.1% of BSA and containing the different substances to be treated at a concentration of 10 μg/ml. After 24 hours of culture at 37° C. (5% (v/v) CO2, 95% (v/v) air) the samples were recovered.
Extracellular medium−1 ml of medium+2 rinsings with 0.25 ml of PBS
Intracellular medium−cellular carpet sonicated with 1 ml of MMP buffer
MMP Buffer composition 0.1 M Tris-HCl, pH 7.5, 0.1 M NaCl, 10 mM CaCl2, 1 mM zinc acetate
(§5) As in the case of the cultures of skin explants, the culture media of the fibroblasts were studied with zymography.
(§6) When the fibroblasts are cultivated in monolayer, only the widely secreted MMP-2 is visible with a very low quantity of MMP-9, however, present.

MMP-9 [4] = test: MMP activity of non-stimulated skin explants (gelatin zymography), MMP-9; settings: 10 μg/ml, 48 hours
Method: as §1
(§7) Extracellular medium-1 ml of medium
(§8) Intracellular medium-explant ground with ultraturax in 1 ml of MMP buffer
(§9) 0.1 M Tris-HCl, pH 7.5, 0.1 M NaCl, 10 mM CaCl2, 1 mM zinc acetate
(§10) Gelatin, substrate of the MMP-s, was co-polymerized at final 1 mg/ml with a gel of polyacrylamide at 10%. The extracellular media from the cultures of skin explant were deposited on the top of the gel, the electrophoresis was carried out at 150 volts. The gels were then incubated in MMP buffer for 24 hours under stirring at 37° C. The gels were then colored with Coomassie blue, then uncolored with distilled water. The lise ranges corresponding to an MMP activity, appeared as white, while the background of the gel was blue. In function of the distance of migration of proteins, one could determine the molecular weights of the enzymes having digested the gelatin. The MMP activity was quantified by morphometric analysis with the aid of a Visiolab computer.

MMP-2 [5] = test: MMP activity of non-stimulated skin explants (gelatin zymography), MMP-2; settings: 10 μg/ml, 48 hours
Method: as §1, §7, §8, §9, §10

MMP-2 [6] = test: MMP activity of skin fibroblasts stimulated with 1 mg/ml hyaluronane (zymography), expression of MMP-2; settings: 1 mg/ml of hyaluronane, 10 μg/ml, 24 hours (section b.2 fibroblasts; title says skin explants not stimulated)
From the text: as §4, §5
a.2.2) MMP Activity of the Fibroblasts of Skin Stimulated with 1 mg/ml of Hyaluronane
The protocol of the studies is the same as that used for the study of the MMP activity of the non-stimulated fibroblasts of skin, but with hyaluronane with a concentration of 1 mg/ml and the samples of oligosaccharides with a concentration of 10 μg/ml, added in the culture medium.
as §6

## C[C@H](O)[C@@H](O)[C@@H](O)[C@H](O)C=O [Fucose, fucose]
MMP-9 [1]
  Active/Inactive MMP-9 (active form/inactive form relationship of the enzyme): 3.54
MMP-9 [1]; vs control
  % effectiveness: reduction of active/inactive relationship of MMP-9: 50%
MMP-2 [2]
  Active/Inactive MMP-2 (active form/inactive form relationship of the enzyme): 1.65
MMP-2 [2]; vs control
  % effectiveness: reduction of active/inactive relationship of MMP-2: Ns
MMP-2 [3]
  % of effectiveness: reduction of the expression of MMP-2: 6%
MMP-9 [4]
  Active/Inactive MMP-9 (active form/inactive form relationship of the enzyme): 2.38
MMP-9 [4]; vs control
  % effectiveness: reduction of active/inactive relationship of MMP-9: 57%
MMP-2 [5]
  Active/Inactive MMP-2 (active form/inactive form relationship of the enzyme): 0.80
MMP-2 [5]; vs control
  % of effectiveness: reduction of active/inactive relationship of MMP-2: 6%
MMP-2 [6]
  % effectiveness: reduction of the expression of MMP-2 with respect to the control: 11%
